Data on seven compounds can be found in the supplement of paper PMC11061612.

Common to all, as to assay: combination Emax (second highest fraction inhibited in the dose matrix, 72 h); higher = more inhibition; extreme values may be limits of the assay
The subject of assay [1] is RCC10RGB (Kidney Carcinoma). An outline of the steps: (§1)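 After 24 hours at 37°C and 5% CO2 in 1536-well plates, cells in DMEM/F12 or RPMI plus 10% FBS received two-drug dose matrices for 72 hours. Viability came from CellTiter-Glo 2.0 luminescence and was scaled as inhibition, anchored at 0 by vehicle wells and at 1 by blank wells. Combination Emax is taken as the second-highest inhibition in the matrix, and Bliss excess as the observed combination effect less EA + EB − EA·EB, with EA and EB the single-agent effects.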

In assay [2] the test system is SNG-M (Endometrial Carcinoma). An outline of the steps:
as §1

The test system of assay [3] is ETK-1 (Biliary Tract Carcinoma). An outline of the steps: as §1
For assay [4], the system named is CS1 (Chondrosarcoma). In outline:
as §1

For assay [5], the system named is MEG-01 (Chronic Myelogenous Leukemia). An outline of the steps:
as §1

In assay [6] the test system is WSU-DLCL2 (B-Cell Non-Hodgkin's Lymphoma). In outline: as §1
Assay [7] has as its system HCT-116 (Colorectal Carcinoma). In outline: as §1
Assay [8] deals with NCI-H1688 (Small Cell Lung Carcinoma). An outline of the steps: as §1
Assay [9] concerns SKN-3 (Head and Neck Carcinoma). An outline of the steps:
as §1

Assay [10] has as its system Saos-2 (Osteosarcoma). An outline of the steps: as §1
In assay [11] the test system is U-118-MG (Low Grade Glioma). In outline: as §1
Assay [12] relates to GDM-1 (Acute Myeloid Leukemia). An outline of the steps: as §1
In assay [13] the test system is BICR78 (Oral Cavity Carcinoma). An outline of the steps:
as §1

In assay [14] the test system is D-392MG (Glioblastoma). An outline of the steps:
as §1

The subject of assay [15] is HOP-92 (Non-Small Cell Lung Carcinoma). An outline of the steps: as §1
For assay [16], the system named is SLVL (B-Cell Non-Hodgkin's Lymphoma). An outline of the steps: as §1
The test system of assay [17] is HLE (Hepatocellular Carcinoma). An outline of the steps: as §1
Assay [18] deals with H4 (Low Grade Glioma). An outline of the steps: as §1
Assay [19] deals with D-283MED (Other Solid Carcinomas). In outline: as §1

As to `CN(C)CCCOc1ccc(-c2ccc3ncc4c(c3c2)n(C2CCOCC2)c(=O)n4C)cn1` [AZD0156] + O=C(c1cc(Cc2n[nH]c(=O)c3ccccc23)ccc1F)N1CCN(C(=O)C2CC2)CC1 [Olaparib] (first compound max 3 µM, partner max 3 µM), the “combination Emax” value in assay [1] was 0.229; in [2] it was 0.0957; in assay [3], 0.329; in assay [4] it was 0.296; in assay [5] it was 0.156; in assay [6], 0.89. Further, the “combination Emax” value in assay [7] is 0.281; in [8], 0.206; in [9], 0.283; in assay [10] it was 0.218; in assay [11], 0.304; in assay [12], 0.533. Also, the “combination Emax” value was 0.129 in [13]; 0.131 in [14]; 0.256 in assay [15]; 0.313 in assay [16]; 0.335 in assay [17]; 0.536 in [18]. Moreover, the “combination Emax” value in [19] stood at 0.557.
For the compound `C=CCn1c(=O)c2cnc(Nc3ccc(N4CCN(C)CC4)cc3)nc2n1-c1cccc(C(C)(C)O)n1` [AZD1775] + C1CN(CCC1(C(=O)N[C@@H](CCO)C2=CC=C(C=C2)Cl)N)C3=NC=NC4=C3C=CN4 [Capivasertib] (first compound max 3 µM, partner max 3 µM), the “combination Emax” value worked out at 0.583 in assay [1]; 0.83 in [2]; 0.664 in [3]; 0.63 in assay [4]; 0.965 in assay [5]; 1 in [6]. In addition, the “combination Emax” value in assay [7] came to 0.667; in assay [8], 0.687; in assay [9], 0.61; in assay [10] it was 0.757; in assay [11], 0.577; in [12], 0.824. For the same compound, the “combination Emax” value in [13] worked out at 0.441; in assay [14], 0.42; in assay [15], 0.551; in [16] it was 0.87; in [17], 0.858; in assay [18], 0.942. Also, the “combination Emax” value in assay [19] is 0.904.
For `COc1nnc2ccc(N3CCC(c4ccc(OCCN5CCN(C)C(=O)[C@H]5C)cc4)CC3)nn12` [AZD5153] + C=CCn1c(=O)c2cnc(Nc3ccc(N4CCN(C)CC4)cc3)nc2n1-c1cccc(C(C)(C)O)n1 [AZD1775] (first compound max 1 µM, partner max 1 µM), the “combination Emax” value in assay [1] came out at 0.686; in [2], 0.642; in assay [3], 0.576; in [4] it was 0.553; in [5], 0.945; in assay [6], 0.996. Further, the “combination Emax” value in assay [7] is 0.788; in assay [8], 0.707; in assay [9], 0.634; in assay [10] it was 0.854; in assay [11], 0.467; in assay [12] it was 0.961. In addition, the “combination Emax” value stood at 0.482 in assay [13]; 0.497 in assay [14]; 0.406 in assay [15]; 0.738 in [16]; 0.61 in assay [17]; 0.884 in [18]. In addition, the “combination Emax” value in assay [19] was 0.988.
With `COc1nnc2ccc(N3CCC(c4ccc(OCCN5CCN(C)C(=O)[C@H]5C)cc4)CC3)nn12` [AZD5153] + CC1(C)CCC(CN2CCN(c3ccc(C(=O)NS(=O)(=O)c4ccc(NCC5CCOCC5)c([N+](=O)[O-])c4)c(Oc4cnc5[nH]ccc5c4)c3)CC2)=C(c2ccc(Cl)cc2)C1 [Venetoclax] (first compound max 1 µM, 7x7, partner max 1 µM), the “combination Emax” value in assay [1] turned out to be 0.539; in assay [2], 0.548; in assay [3], 0.445; in assay [4], 0.408; in [5], 0.889; in [6], 1. Further, the “combination Emax” value in assay [7] is 0.666; in assay [8] it was 0.384; in [9], 0.467; in [10], 0.535; in [11], 0.367; in [12], 1. Also, the “combination Emax” value was determined as 0.468 in [13]; 0.45 in assay [14]; 0.362 in assay [15]; 0.802 in assay [16]; 0.336 in assay [17]; 0.677 in assay [18]. The “combination Emax” value in [19] worked out at 0.835.
In the case of `CS(=O)(=O)CCNCc1ccc(-c2ccc3ncnc(Nc4ccc(OCc5cccc(F)c5)c(Cl)c4)c3c2)o1` [Lapatinib] + Cn1cnc2c(F)c(Nc3ccc(Br)cc3Cl)c(C(=O)NOCCO)cc21 [Selumetinib] (first compound max 10 µM, 7x7, partner max 10 µM), the “combination Emax” value in assay [2] is 0.43; in assay [4], 0.554; in assay [5], 0.644; in [6], 0.472; in assay [7], 0.775; in [10], 0.289. Besides, the “combination Emax” value in [13] was found to be 0.547; in [14], 0.396; in [16] it was 0.432; in assay [17] it was 0.234; in [18], 0.27; in [19], 0.935.
As for `CS(=O)(=O)CCNCc1ccc(-c2ccc3ncnc(Nc4ccc(OCc5cccc(F)c5)c(Cl)c4)c3c2)o1` [Lapatinib] + NC1(c2ccc(-c3nc4ccn5c(=O)[nH]nc5c4cc3-c3ccccc3)cc2)CCC1 [MK-2206] (first compound max 10 µM, 7x7, partner max 10 µM), the “combination Emax” value in assay [2] is 0.667; in [3], 0.947; in [4], 0.765; in assay [5], 0.904; in [6], 0.99; in [7] it was 0.891. In addition, the “combination Emax” value in [8] was 0.819; in assay [9], 0.835; in assay [10], 0.426; in assay [13], 0.545; in assay [14] it was 0.189; in assay [15], 0.685. For the same compound, the “combination Emax” value was 0.81 in [16], 0.597 in assay [17], 0.883 in assay [18] and 0.96 in assay [19].
Turning to `Cc1nc(-c2cn3c(n2)-c2ccc(-c4cnn(C(C)(C)C(N)=O)c4)cc2OCC3)n(C(C)C)n1` [Taselisib] + O=C(Nc1ccc2[nH]nc(-c3ccncc3)c2c1)[C@@H]1CCN(CC(=O)N2CCN(c3ccc(-c4ncccn4)cc3)CC2)C1 [SCH772984] (first compound max 10 µM, 7x7, partner max 5 µM), the “combination Emax” value came out at 0.76 in [2]; 0.744 in assay [4]; 0.954 in assay [5]; 0.961 in assay [6]; 1 in assay [7]; 0.703 in [10]. The “combination Emax” value in [13] was 0.66; in [14] it was 0.799; in assay [16], 0.667; in assay [17], 0.33; in [18], 0.68; in assay [19], 0.775.
